In patent publication US11266636B2, “Maleate salt of the free base of N-[5-(aminosulfonyl)-4-methyl-1,3-thiazol-2-yl]-N-methyl-2-[4-(2-pyridinyl)-phenyl]-acetamide, pharmaceutical formulations, methods of manufacture and uses thereof for the treatment of herpes viruses” (priority 2016, dated 2022):
Values after ≈ are worked out from the molar mass of the structure shown.

How the values were obtained:
[1] = test system: herpes simplex virus-2; conditions: comparison of literature values; cited from earlier work
[2] = Solubility determination in different pharmaceutical excipients at ambient temperature; conditions: for solubility at 22 h: thermodynamic from solid
Description: Dimethyl sulfoxide (DMSO) served as control solvent.
Suspensions were prepared by weighing the test items into glass vials and addition of the appropriate solvent. The suspensions were shortly vortex-mixed and shaken over-head for 22 hours. Aliquots (500 μL) were transferred to filtration devices with polyvinylidene fluoride membranes and the solid matter was separated by centrifugation. The filtrates were diluted (1:100) in acetonitrile/methanol/water/acetic acid (25+25+50+0.5, v+v+v+v).
Control solutions of all salts were prepared in DMSO at a concentration of 20 mg/mL and treated as described above. The solubility was determined by concentration measurement of the diluted filtrate of the oversaturated solutions.
Chromatographic separation was performed on a Phenomenex Luna C18(2), 5 μm column (150×2 mm) by gradient elution using 1% acetic acid and acetonitrile/methanol (1+1, v+v) containing 1% acetic acid. For detection, a diode-array detector was used. Absorption was recorded at a wavelength of 300 nm. A detailed method description was filed in the raw data folder.

[3] = Solubility in water and resulting pH; assay type: physicochemical; conditions: for solubility at 22 h: water, thermodynamic from solid
Description: Additionally, the solubility of the free base of pritelivir and its aforementioned salts in water was determined and the resulting pH was measured.
For detection, a diode-array detector was used. Absorption was recorded at a wavelength of 300 nm.

[4] = Short-term stability in pharmaceutical excipients over two weeks (ambient temperature and 50° C.); assay type: physicochemical; conditions: for Stability in polyethylene glycol (in words): two weeks storage at 50° C.
Description: Additionally, the solubility of the free base of pritelivir and its aforementioned salts in water was determined and the resulting pH was measured. […] For detection, a diode-array detector was used. Absorption was recorded at a wavelength of 300 nm. All calculations were carried out with Microsoft Excel 2010. Mean data are given as arithmetic means. Recoveries were calculated in comparison to the measured start concentration (t0).

[5] = Relative solubility in simulated gastric and intestinal fluids (FaSSGF, FaSSIF, FeSSIF); assay type: physicochemical; conditions: 2 hours; for Relative solubility in FaSSIF: fasted state simulated intestinal fluid, pH 6.5, 37° C.; for Relative solubility in FeSSIF: fed state simulated intestinal fluid, pH 5, 37° C.
Description: The pH was adjusted to 6.5 by addition of 1 N hydrochloric acid.
The pH was adjusted to 5 by addition of 1 N hydrochloric acid.
Suspensions of the mono ethane sulfonate salt, the maleate salt, the mono benzene sulfonate salt, the hemi ethane-1,2-disulfonate, the mesylate salt or the pritelivir free base were prepared as triplicates by weighing approximately 12 mg test item and addition of 600 μL FaSSGF, FaSSIF or FeSSIF (final concentration 20 mg/mL). The suspensions were incubated at 37° C. Aliquots (100 μL) were transferred into centrifugation devices (polyvinylidene difluoride membrane, 0.2 μm) for removal of solid matter (10 minutes at approximately 15000×g and 37° C.) after 0, 0.5, 1 and 2 hours. FaSSGF filtrates were diluted in acetonitrile to a final dilution of 1:1000. FaSSIF filtrates were diluted in acetonitrile to a final dilution of 1:50 and FeSSIF filtrates to a final dilution of 1:100.
The samples were analyzed for their content of the free base of pritelivir. […] As hydrolysis products were not determined only relative solubility was used for further evaluations of the results.

[6] = Photostability (xenon lamp, ca. 2000 Wh/m^2, 29 hours, >310 nm), solids and acidic solutions; assay type: physicochemical; conditions: 0.1 M hydrochloric acid/acetonitrile (75+25)
Description: The compounds were exposed as solids and dissolved in 0.1 M hydrochloric acid/acetonitrile (75+25, v+v) at a target concentration of 0.3 mg/mL. Corresponding dark control samples were prepared and placed in UV-light protected vials in the irradiation chamber to keep the ambient conditions equivalent. Additionally, untreated solids were dissolved and analyzed as reference samples. Two samples were prepared from each solid test item. Approximately 20 mg of each test item (corrected for free base) was weighed into quartz glass vials. A second aliquot was weighed into light protected glass vials (dark control). Both samples were placed inside the irradiation chamber. […] Two aliquots were prepared (irradiated and dark control sample). The dark control samples were stored inside the irradiation chamber in closed and light protected glass vials, while the photostressed solutions were stored in quartz flasks, equipped only with a loose quartz glass cover. During irradiation, the samples were partially evaporated due to heat production inside the irradiation chamber. The extent of evaporation was variable from sample to sample (the sulphate salt of pritelivir free base was almost completely evaporated). […] The samples (solutions and solid state) were irradiated with a xenon lamp at […] through a glass filter for 29 hours (total applied dose of UV-light ca. 2000 Wh/m^2). The instrument used was a Suntest CPS+ (Atlas). By the use of the glass filter, only wavelengths >310 nm were irradiated, leading to simulation of the ID65 standard (indoor indirect daylight standard). […] The recorded average chamber heat temperature was 38° C. […] The % peak area was determined for the pritelivir free base in all tested samples. […] Absorption was recorded at a wavelength of 280 nm. […] The degree of decomposition was determined by chromatographic separation of (UV-active) degradation products and by determination of the respective percentage of the total peak area (% total peak area) per chromatogram. As salts dissociate in solution, the peak area of the pritelivir free base was determined in all samples.

[7] = test system: HSV-2; conditions: once daily suppressive therapy; cited from earlier work
[8] = 30% Captisol, aqueous with cosolvent or surfactant or cyclodextrin, Solubility in 30% Captisol, ambient temperature, 22 hours shaking
[9] = 30% hydroxypropyl-β-cyclodextrin (HP-beta CD), aqueous with cosolvent or surfactant or cyclodextrin, Solubility in 30% HP-beta CD, 30% Hydroxypropyl-β-cyclodextrin, ambient temperature
[10] = polyethylene glycol (PEG 400), organic solvent or mixture, Solubility in polyethylene glycol (PEG 400), PEG 400, ambient temperature
[11] = propylene glycol, organic solvent or mixture, Solubility in propylene glycol (PG), ambient temperature

## C[C@H](Cn1cnc2c(N)ncnc21)OCP(=O)(O)O [Tenofovir]
[1]
  IC50-values compared to the maleate salt: significantly higher

## Cc1nc(N(C)C(=O)Cc2ccc(-c3ccccn3)cc2)sc1S(N)(=O)=O [free base of pritelivir, N-[5-(aminosulfonyl)-4-methyl-1,3-thiazol-2-yl]-N-methyl-2-[4-(2-pyridinyl)-phenyl]-acetamide]
[2]; [8]
  solubility at 22 h: 1790 µg/mL (≈ 4.45 mM)
[2]; [9]
  solubility at 22 h: 1910 µg/mL (≈ 4.75 mM)
[2]; [10]
  solubility at 22 h: 89600 µg/mL (≈ 223 mM)
[3]
  solubility at 22 h: 1.3 µg/mL (≈ 0.00323 mM)
[4]; two weeks, ambient temperature
  Stability in ethanol, PEG and propylene glycol: slight decrease

## Cc1nc(N(C)C(=O)Cc2ccc(-c3ccccn3)cc2)sc1S(N)(=O)=O.O=C(O)/C=C\C(=O)O [maleate salt, maleate salt of the free base of N-[5-(amino-sulfonyl)-4-methyl-1,3-thiazol-2-yl]-N-methyl-2-[4-(2-pyridinyl)phenyl]acetamide]
[2]; [8]
  solubility at 22 h: 24500 µg/mL
[2]; [9]
  solubility at 22 h: 24100 µg/mL
[2]; ethanol, organic solvent or mixture, Solubility in ethanol, ambient temperature
  solubility at 22 h: 439 µg/mL
[2]; [10]
  solubility at 22 h: 32200 µg/mL
[2]; propylene glycol, ambient temperature, listed as Maleate Salt of Free Base Pritelivir
  Solubility in propylene glycol (PG): 5230 µg/mL
[2]; [11]
  solubility at 22 h: 5000 to 6000 µg/mL
[3]
  Solubility in water: 480 µg/mL
[5]
  Relative solubility in FaSSIF: essentially similar concentrations
  Relative solubility in FeSSIF: essentially similar concentrations
[6]; 29 hours, total dose 2000 Wh/m^2
  % total peak area of the free base of pritelivir, irradiated solutions: 71.5%

## Cc1nc(N(C)C(=O)Cc2ccc(-c3ccccn3)cc2)sc1S(N)(=O)=O.O=S(=O)(O)c1ccccc1 [mono benzene sulfonate salt, N-methyl-N-(4-methyl-5-sulfamoylthiazol-2-VI)-2-(4-(pyridin-2-yl)phenyl)acetamide benzenesulfonate]
[5]
  Relative solubility in FaSSIF: essentially similar concentrations
  Relative solubility in FeSSIF: essentially similar concentrations
[4]
  Stability in polyethylene glycol (in words): showed stability

## CCS(=O)(=O)O.Cc1nc(N(C)C(=O)Cc2ccc(-c3ccccn3)cc2)sc1S(N)(=O)=O [mono ethane sulfonate salt, N-methyl-N-(4-methyl-5-sulfamoylthiazol-2-yl)-2-(4-(pyridin-2-yl)phenyl)acetamide ethanesulfonate]
[2]; [11]
  solubility at 22 h: 5000 to 6000 µg/mL
[3]
  solubility at 22 h: 175 to 606 µg/mL
[5]; fasted state simulated gastric fluid, pH 1.6, 37° C.
  Relative solubility in FaSSGF: highest relative solubility
[5]
  Relative solubility in FaSSIF: highest relative solubility
  Relative solubility in FeSSIF: highest relative solubility

## Cc1nc(N(C)C(=O)Cc2ccc(-c3ccccn3)cc2)sc1S(N)(=O)=O.O=S(=O)(O)O [sulfate salt, N-methyl-N-(4-methyl-5-sulfamoylthiazol-2-yl)-2-(4-(pyridin-2-yl)phenyl)acetamide Sulfate]
[2]; organic solvent or mixture
  solubility at 22 h: 12500 µg/mL
[3]
  solubility at 22 h: 175 to 606 µg/mL
[4]
  Stability in polyethylene glycol (in words): showed stability
[6]
  % total peak area of the free base of pritelivir, dark control samples of the acidic solutions: 95.7%

## CC(C)[C@H](N)C(=O)OCCOCn1cnc2c(=O)[nH]c(N)nc21 [valacyclovir]
[7]
  Risk of transmission of genital herpes: significantly reduces the risk of transmission

## N-methyl-N-(4-methyl-5-sulfamoylthiazol-2-yl)-2-(4-(pyridin-2-yl)phenyl)acetamide hemiethane-1,2-disulphonate [hemi ethane-1,2-disulfonate salt]
[6]
  % total peak area of the free base of pritelivir, dark control samples of the acidic solutions: 94.7%
